# Data from US6403628B1 (dated 2002).
smiles,measurement,value
CCS(=O)(=O)CCNc1c([S+](C)[O-])c(C(C)=O)nn1-c1c(Cl)cc(C(F)(F)F)cc1Cl (centres unmarked),melting point,102 °C
CC[S+]([O-])c1c(C(C)=O)nn(-c2c(Cl)cc(C(F)(F)F)cc2Cl)c1N (centres unmarked),melting point,189 °C
CSc1c(C(C)=O)nn(-c2c(Cl)cc(C(F)(F)F)cc2Cl)c1N,melting point,113 °C
CC(=O)c1nn(-c2c(Cl)cc(C(F)(F)F)cc2Cl)c(NSC(F)(F)F)c1[S+](C)[O-] (centres unmarked),melting point,67 to 102 °C
CC(=O)c1nn(-c2c(Cl)cc(C(F)(F)F)cc2Cl)c(N)c1[S+](C)[O-] (centres unmarked),melting point,166 °C
CC(=O)c1nn(-c2c(Cl)cc(C(F)(F)F)cc2Br)c(N)c1[S+](C)[O-] (centres unmarked),melting point,153 °C
CNc1c([S+](C)[O-])c(C(C)=O)nn1-c1c(Cl)cc(C(F)(F)F)cc1Cl (centres unmarked),melting point,126 °C
CCNc1c([S+](C)[O-])c(C(C)=O)nn1-c1c(Cl)cc(C(F)(F)F)cc1Cl (centres unmarked),melting point,123 °C
